Measurements published in ChEMBL document CHEMBL1777720, “Novel, potent, and orally bioavailable phosphinic acid inhibitors of the hepatitis C virus NS3 protease” (Bioorg Med Chem Lett, 2011).

Legend:
[1] = Oral bioavailability in dog at 3 mg/kg; format: ADME, organism-based, Canis lupus familiaris; conditions: in vivo
[2] = Clearance in dog at 1 mg/kg, iv; format: ADME, organism-based, Canis lupus familiaris; parameters: dose 1 mg/kg, route intravenous; conditions: in vivo
Hepatitis C virus = assay: Antiviral activity against HCV genotype 1b infected in Huh7 cells assessed as inhibition of viral replication by cell-based replicon assay; format: functional, organism-based, Hepacivirus hominis; conditions: Huh-7
[3] = Inhibition of HCV 1a NS3/4A protease; parameters: species or system Hepatitis C virus subtype 1a
[4] = Oral bioavailability in rat at 10.7 mg/kg, po; format: ADME, organism-based; conditions: in vivo
[5] = Clearance in rat at 0.4 mg/kg, iv; format: ADME, organism-based; parameters: dose 0.4 mg/kg, route intravenous; conditions: in vivo
[6] = Clearance in dog at 0.5 mg/kg, iv; format: ADME, organism-based, Canis lupus familiaris; parameters: dose 0.5 mg/kg, route intravenous; conditions: in vivo
[7] = Oral bioavailability in dog at 4 mg/kg; format: ADME, organism-based, Canis lupus familiaris; conditions: in vivo

clearance [2] | EC50 (Hepatitis C virus) | IC50 [3] | SMILES | further results
11.2 mL/min/kg |  |  | C=C[C@@H]1C[C@]1(NC(=O)[C@@H]1C[C@@H](Oc2cc(-c3csc(NC(C)C)n3)nc3cc(OC)ccc23)CN1C(=O)[C@@H](NC(=O)OC1CCCC1)C(C)(C)C)P(=O)(O)O | bioavailability [1]: 0.5%
 | 5 nM | 1 nM | COc1ccc2c(O[C@@H]3C[C@H]4C(=O)N[C@]5(P(=O)(O)O)C[C@H]5/C=C/CCCCC[C@H](NC(=O)OC5CCCC5)C(=O)N4C3)cc(-c3csc(NC(C)C)n3)nc2c1 | 
 | 69 nM | 6 nM | C=C[C@@H]1C[C@]1(NC(=O)[C@@H]1C[C@@H](Oc2cc(-c3csc(NC(C)C)n3)nc3cc(OC)ccc23)CN1C(=O)[C@@H](NC(=O)OC1CCCC1)C(C)(C)C)P(C)(=O)O | bioavailability [4]: 0.4%; clearance [5]: 28.7 mL/min/kg
 | 390 nM | 8 nM | C=C[C@@H]1C[C@]1(NC(=O)[C@@H]1C[C@@H](Oc2cc(-c3csc(NC(C)C)n3)nc3cc(OC)ccc23)CN1C(=O)[C@@H](NC(=O)OC1CCCC1)C(C)(C)C)P(=O)(O)CC | 
 | 49 nM | 8 nM | C=C[C@@H]1C[C@]1(NC(=O)[C@@H]1C[C@@H](Oc2cc(-c3csc(NC(C)C)n3)nc3cc(OC)ccc23)CN1C(=O)[C@@H](NC(=O)OC1CCCC1)C(C)(C)C)P(=O)(O)CCCC | 
 | 3080 nM | 86 nM | C=C[C@@H]1C[C@]1(NC(=O)[C@@H]1C[C@@H](Oc2cc(-c3csc(NC(C)C)n3)nc3cc(OC)ccc23)CN1C(=O)[C@@H](NC(=O)OC1CCCC1)C(C)(C)C)P(=O)(O)C(C)C | 
 | 2650 nM | 44 nM | C=C[C@@H]1C[C@]1(NC(=O)[C@@H]1C[C@@H](Oc2cc(-c3csc(NC(C)C)n3)nc3cc(OC)ccc23)CN1C(=O)[C@@H](NC(=O)OC1CCCC1)C(C)(C)C)P(=O)(O)c1ccccc1 | 
 | 180 nM | 9 nM | C=C[C@@H]1C[C@]1(NC(=O)[C@@H]1C[C@@H](Oc2cc(-c3csc(NC(C)C)n3)nc3cc(OC)ccc23)CN1C(=O)[C@@H](NC(=O)OC1CCCC1)C(C)(C)C)P(=O)(O)Cc1ccccc1 | clearance [5]: 36.7 mL/min/kg; bioavailability [1]: 4.6%; clearance [6]: 10.7 mL/min/kg
 | 311 nM | 6 nM | C=C[C@@H]1C[C@]1(NC(=O)[C@@H]1C[C@@H](Oc2cc(-c3csc(NC(C)C)n3)nc3cc(OC)ccc23)CN1C(=O)[C@@H](NC(=O)OC1CCCC1)C(C)(C)C)P(=O)(O)Cc1ccccc1Cl | 
 | 47 nM | 6 nM | C=C[C@@H]1C[C@]1(NC(=O)[C@@H]1C[C@@H](Oc2cc(-c3csc(NC(C)C)n3)nc3cc(OC)ccc23)CN1C(=O)[C@@H](NC(=O)OC1CCCC1)C(C)(C)C)P(=O)(O)Cc1ccccc1OC | 
 | 10 nM | 3 nM | COc1ccc2c(O[C@@H]3C[C@H]4C(=O)N[C@]5(P(=O)(O)Cc6ccccc6)C[C@H]5/C=C/CCCCC[C@H](NC(=O)OC5CCCC5)C(=O)N4C3)cc(-c3csc(NC(C)C)n3)nc2c1 | 
6 mL/min/kg | 5 nM | 6 nM | COc1ccc2c(O[C@@H]3C[C@H]4C(=O)N[C@]5(P(=O)(O)Cc6ccccc6)C[C@H]5CCCCCCC[C@H](NC(=O)OC5CCCC5)C(=O)N4C3)cc(-c3csc(NC(C)C)n3)nc2c1 | bioavailability [7]: 6.4%
9.33 mL/min/kg | 5 nM | 1 nM | COc1ccc2c(O[C@@H]3C[C@H]4C(=O)N[C@]5(P(=O)(O)Cc6ccccc6Cl)C[C@H]5/C=C/CCCCC[C@H](NC(=O)OC5CCCC5)C(=O)N4C3)cc(-c3csc(NC(C)C)n3)nc2c1 | 
3.17 mL/min/kg | 5 nM | 3 nM | COc1ccc2c(O[C@@H]3C[C@H]4C(=O)N[C@]5(P(=O)(O)Cc6ccccc6Cl)C[C@H]5CCCCCCC[C@H](NC(=O)OC5CCCC5)C(=O)N4C3)cc(-c3csc(NC(C)C)n3)nc2c1 | 
17.3 mL/min/kg | 9 nM | 3 nM | COc1ccc2c(O[C@@H]3C[C@H]4C(=O)N[C@]5(P(=O)(O)Cc6ccccc6OC)C[C@H]5/C=C/CCCCC[C@H](NC(=O)OC5CCCC5)C(=O)N4C3)cc(-c3csc(NC(C)C)n3)nc2c1 | 
5.33 mL/min/kg | 7 nM | 3 nM | COc1ccc2c(O[C@@H]3C[C@H]4C(=O)N[C@]5(P(=O)(O)Cc6ccccc6OC)C[C@H]5CCCCCCC[C@H](NC(=O)OC5CCCC5)C(=O)N4C3)cc(-c3csc(NC(C)C)n3)nc2c1 | 

SMILES | clearance [2] | EC50 (Hepatitis C virus) | IC50 [3] | further results
COc1ccc2c(O[C@@H]3C[C@H]4C(=O)N[C@]5(C(=O)O)C[C@H]5C=CCCCCC[C@H](NC(=O)OC5CCCC5)C(=O)N4C3)cc(-c3csc(NC(C)C)n3)nc2c1 [CILUPREVIR] |  | 1 nM | 1 nM | 
